From patent publication US4258046A, “Pyrano-heterocycles and medicaments containing these compounds” (Hoechst Aktiengesellschaft, priority 1978, dated 1981)
Where a name gives a salt, the structure may show the parent alone.

What was measured:
[1] = tested on: passive cutaneous anaphylaxis (PCA) in rats; assay: Inhibition of passive cutaneous anaphylaxis (PCA) in rats on intravenous treatment; type: in vivo, Sprague-Dawley rats; conditions: i.v., antiserum dilution 1:16
Protocol: (§1) The antiserum is directed against ovalbumine and is induced in rats by combined administration of ovalbumine with Bordetella pertussis as adjuvant and boostering with Nippostrongylus larvae. 72 hours after the intracutaneous administration of the antiserum, the intravenous injection of the antigen consisting of a mixture of each time 25 mg/kg of ovalbumine and Evans blue is effected, in order to trigger the cutaneous anaphylactic reaction. The compounds of the formula I or their salts are administered, if intravenously, directly before the injection of the ovalbumine-dyestuff mixture and if administered orally, 30 minutes before the administration of the ovalbumine-dyestuff mixture. 10 Minutes after the ovalbumine-dyestuff injection, the animals are sacrificed and the diameter of spreading of the dyestuff is measured in the hypodermis.
(§2) As comparative substance, the standard preparation di- sodium-chromoglycate(DSCG) is used.

[2] = tested on: passive cutaneous anaphylaxis (PCA) in rats; assay: Inhibition of passive cutaneous anaphylaxis (PCA) in rats on oral treatment; type: in vivo, Sprague-Dawley rats
Protocol: The compounds of the invention of the formula I and their salts have strong antiallergic properties and are well tolerated on intravenous as well as oral administration in the models of passive cutaneous anaphylaxis (P C A) to rats.
as §1, with “According to the method described by J. Goose and A. M. J. N. Blair, Immunology 16, 749 (1969) a P C A is made ready on Sprague-Dawley rats by intracutaneous administration of homologous antiserum, 0.1 ml of a dilution of 1:16 and 1:32 in both flanks. The antiserum” for “The antiserum”
as §2

[3] = 10.0 mg/kg, antiserum dilution 1:16
[4] = 10.0 mg/kg, antiserum dilution 1:32

| SMILES | % Inhibition against control ([1]; 0.03 mg/kg) | % Inhibition against control ([1]; 0.1 mg/kg) | % Inhibition against control ([1]; 0.3 mg/kg) | % Inhibition against control ([1]; 3.0 mg/kg) | % Inhibition against control ([1]; 1.0 mg/kg) | also measured |
| --- | --- | --- | --- | --- | --- | --- |
| CCn1c(=O)c2c(O)c([N+](=O)[O-])c(=O)oc2c2cc(C(F)(F)F)ccc21 [Example 32, 6-Ethyl-5,6-dihydro-3-nitro-2,5-dioxo-9-trifluoromethyl-2H-pyrano[3,2-c]quinoline-4-ol] | 19% | 69% | 75% | 100% |  |  |
| CCn1c(=O)c2c(O)c([N+](=O)[O-])c(=O)oc2c2cc(F)ccc21.[Na] [Example 31, 6-Ethyl-9-fluoro-5,6-dihydro-3-nitro-2,5-dioxo-2H-pyrano[3,2-c]quinoline-4-ol-sodium salt] | 60% | 80% | 87% | 100% |  | % Inhibition against control ([1]; 0.01 mg/kg): 27% |
| O=c1oc2c(c(O)c1[N+](=O)[O-])c(=O)n1c3c(cc(Cl)cc23)CCC1 [Example 24, 11-Chloro-7,8-dihydro-3-nitro-2,5-dioxo-2H,5H,9H-benzo-[ij]pyrano[2,3-b]quinolizine-4-ol-sodium salt] |  | 12% | 50% | 100% | 89% | % Inhibition against control ([2]; 0.3 mg/kg, antiserum dilution 1:16): 22%; % Inhibition against control ([2]; 0.3 mg/kg, antiserum dilution 1:32): 27%; % Inhibition against control ([2]; 1.0 mg/kg, antiserum dilution 1:16): 50%; % Inhibition against control ([2]; 1.0 mg/kg, antiserum dilution 1:32): 73%; % Inhibition against control ([2]; 3.0 mg/kg, antiserum dilution 1:16): 44%; % Inhibition against control ([2]; 3.0 mg/kg, antiserum dilution 1:32): 73%; % Inhibition against control [2, 3]: 44%; % Inhibition against control [2, 4]: 73% |
| Cn1c(=O)c2c(O)c([N+](=O)[O-])c(=O)oc2c2cc(Cl)ccc21 [Example 25, 9-Chloro-5,6-dihydro-6-methyl-3-nitro-2,5-dioxo-2H-pyrano[3,2-c]quinoline-4-ol] | 67% | 100% |  |  |  | % Inhibition against control ([1]; 0.01 mg/kg): 44% |
| CCn1c(=O)c2c(O)c([N+](=O)[O-])c(=O)oc2c2cc(Cl)ccc21 [Example 30, 6-Ethyl-9-chloro-5,6-dihydro-3-nitro-2,5-dioxo-2H-pyrano[3,2-c]-quinoline-4-ol] | 50% | 88% | 100% |  |  |  |
| O=C(O)c1cc(=O)c2c(OCC(O)COc3cccc4oc(C(=O)O)cc(=O)c34)cccc2o1 [DSCG, di- sodium-chromoglycate, reference compound] |  | 9% | 34% |  | 71% | activity when administered orally [2]: orally inactive; % Inhibition against control [2, 3]: 0%; % Inhibition against control [2, 4]: 0%; % Inhibition against control ([2]; 30.0 mg/kg, antiserum dilution 1:16): 5%; % Inhibition against control ([2]; 30.0 mg/kg, antiserum dilution 1:32): 0% |
| CCn1c(=O)c2c(O)c([N+](=O)[O-])c(=O)oc2c2cc(Cl)c(Cl)cc21 [Example 35, 6-Ethyl-8,9-dichloro-5,6-dihydro-3-nitro-2,5-dioxo-2H-pyrano[3,2-c]quinoline-4-ol] |  | 20% | 53% |  | 73% | % Inhibition against control ([1]; 30.0 mg/kg): 100% |
